Article PMC8052950 (Journal of medicinal chemistry, 2021)
Counter-ions that a name gives are not always drawn.

Experiments:
[1] = target: WVpro (West Nile virus protease) (West Nile virus, UniProt Q9Q6P4); test: WVpro enzyme inhibition assay; assay type: biochemical
[2] = target: DV2pro (protease of dengue serotype-2) (Dengue virus type 2, UniProt P29990); test: DV2pro enzyme inhibition assay; assay type: biochemical, dengue virus serotype-2; details: read-out: IC50 against DV2pro; standard errors <30%
Chain of DV2pro (protease of dengue serotype-2) (P29990 1476-1645): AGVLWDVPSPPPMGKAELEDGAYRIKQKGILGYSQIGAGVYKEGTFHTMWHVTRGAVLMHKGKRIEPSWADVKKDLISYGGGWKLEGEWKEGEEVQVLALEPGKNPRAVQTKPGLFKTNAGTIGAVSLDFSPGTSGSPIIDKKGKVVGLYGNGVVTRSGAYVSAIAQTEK
Chain of DV2pro (protease of dengue serotype-2) (P29990 1394-1440): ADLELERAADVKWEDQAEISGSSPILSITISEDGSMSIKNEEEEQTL

[3] = system: dengue virus (serotype-2, strain K0049); details: comparable activities; cited from earlier work
ZIKV-FLR = test: Cellular anti-ZIKV activity in U87 cells; assay type: cell-based, Zika virus; details: for EC68 against ZIKV: in cells, values printed in nM in the text
ZIKV = details: cited from earlier work
[4] = system: 5 selected human proteases; details: at 10 μM; cited from earlier work
ZIKV strain HN16 = details: comparable activities; cited from earlier work

Chain of WVpro (West Nile virus protease) (Q9Q6P4 1424-1470): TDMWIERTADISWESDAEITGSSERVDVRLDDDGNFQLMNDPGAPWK
Chain of WVpro (West Nile virus protease) (Q9Q6P4 1506-1675): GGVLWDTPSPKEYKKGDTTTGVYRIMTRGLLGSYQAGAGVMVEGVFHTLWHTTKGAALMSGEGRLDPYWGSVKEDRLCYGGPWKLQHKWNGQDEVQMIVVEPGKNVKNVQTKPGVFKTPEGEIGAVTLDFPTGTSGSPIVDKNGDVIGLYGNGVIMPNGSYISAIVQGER

Q: With `Brc1ccc(-c2ncc(OCC3CCNCC3)nc2-c2ccc(Br)cc2)cc1` [Compound 1, 2,3-bis(4-Bromophenyl)-5-(piperidin-4-ylmethoxy)pyrazine hydrochloride] as the compound, how does the IC50 [1] read?
A: > 50 µM

Q: For `NCc1ccc(-c2cc(CNCC3CCNCC3)sc2-c2ccc(CN)cc2)cc1` [Compound 20, ((5-(((Piperidin-4-ylmethyl)amino)methyl)thiophene-2,3-diyl)bis(4,1-phenylene))dimethanamine Hydrochloride], which IC50 [1] is on record?
A: > 50 µM

Q: What about the IC50 [2] of the same compound?
A: > 50 µM

Q: For `NCc1ccc(-c2ncc(OCC3CCNCC3)nc2-c2ccc(Oc3ccccc3)cc2)cc1` [Compound 44, (4-(3-(4-Phenoxyphenyl)-5-(piperidin-4-ylmethoxy)pyrazin-2-yl)phenyl)methanamine hydrochloride], which IC50 [1] is on record?
A: > 50 µM

Q: With `NCc1ccc(-c2ncc(OCC3CCNCC3)nc2-c2ccc(-c3ccncc3)cc2)cc1` [Compound 45, (4-(5-(Piperidin-4-ylmethoxy)-3-(4-(pyridin-4-yl)phenyl)pyrazin-2-yl)phenyl)methanamine hydrochloride] as the compound, how does the IC50 [1] read?
A: > 50 µM

Q: For `NCc1ccc(-c2ncc(OCC3CCNCC3)nc2-c2ccc(-c3cn[nH]c3)cc2)cc1` [Compound 46], which IC50 [1] is on record?
A: 0.12 µM

Q: For `NCc1ccc(-c2ncc(OCC3CCNCC3)nc2-c2ccc(-c3ccoc3)cc2)cc1` [Compound 47, (4-(3-(4-(Furan-3-yl)phenyl)-5-(piperidin-4-ylmethoxy)pyrazin-2-yl)phenyl)methanamine hydrochloride], which “Inhibition of replication of dengue virus (serotype-2, strain K0049)” value [3] is on record?
A: potently inhibit replication

Q: What about the EC68 (ZIKV-FLR; Zika virus, U-87 MG, 48 h, read-out: ZIKV-FLR EC68) of the same compound?
A: 0.3 to 0.6 µM

Q: What about the “EC68 against ZIKV” value (ZIKV-FLR) of the same compound?
A: 300 to 600 nM

Q: What about the “In vivo antiviral activity” value (ZIKV; mouse model of ZIKV infection) of the same compound?
A: strong in vivo antiviral activity

Q: And the “Survival of the experimental mice” value (ZIKV; mouse, 30 mg/kg for 3 days)?
A: significantly prolonged survivals

Q: What about the “Inhibition of 5 selected human proteases” value [4] of the same compound?
A: did not inhibit

Q: What about the “Inhibition of replication of ZIKV strain HN16” value (ZIKV strain HN16) of the same compound?
A: potently inhibit replication

Q: With `NCc1ccc(-c2ncc(OCC3CCNCC3)nc2-c2ccc(O)cc2)cc1` [Compound 50, 4-(3-(4-(Aminomethyl)phenyl)-6-(piperidin-4-ylmethoxy)pyrazin-2-yl)phenol hydrochloride] as the compound, how does the “Inhibition of ZIKV replication” value (ZIKV-FLR; at 10 μM) read?
A: did not inhibit ZIKV replication

Q: With `NCc1ccc(-c2ncc(OCC3CCNCC3)nc2-c2ccc(C3CCOCC3)cc2)cc1` [Compound 103, (4-(5-(Piperidin-4-ylmethoxy)-3-(4-(tetraHydro-2H-pyran-4-yl)phenyl)pyrazin-2-yl)phenyl)methanamine hydrochloride] as the compound, how does the “EC68 against ZIKV” value (ZIKV-FLR) read?
A: 300 to 600 nM
